Assays:
Mhp1 = target: T1, Mhp1 (Microbacterium maritypicum, UniProt D6R8X8); assay: tryptophan fluorescence quenching titration; assay type: binding
T1 construct: gene hyuP; His-tagged (Ni-NTA, HisProbe blot), expressed in E. coli inner membranes, solubilized in DDM or trapped in A8-35
T1 sequence (D6R8X8 1-489): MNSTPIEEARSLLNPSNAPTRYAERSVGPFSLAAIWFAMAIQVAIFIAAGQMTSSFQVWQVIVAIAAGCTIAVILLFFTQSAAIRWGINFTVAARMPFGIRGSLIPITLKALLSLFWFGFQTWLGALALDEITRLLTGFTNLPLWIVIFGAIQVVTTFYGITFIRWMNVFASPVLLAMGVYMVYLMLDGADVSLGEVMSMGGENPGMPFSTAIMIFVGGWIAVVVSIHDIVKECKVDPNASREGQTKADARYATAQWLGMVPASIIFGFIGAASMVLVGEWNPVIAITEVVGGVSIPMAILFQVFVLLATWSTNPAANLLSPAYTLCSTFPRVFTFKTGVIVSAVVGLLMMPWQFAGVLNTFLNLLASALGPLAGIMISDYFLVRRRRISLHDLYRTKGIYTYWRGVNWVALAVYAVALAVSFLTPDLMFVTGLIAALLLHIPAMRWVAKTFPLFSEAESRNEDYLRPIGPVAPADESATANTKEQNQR
Protocol: tryptophan fluorescence quenching titration on Mhp1 | The activity of Mhp1 was evaluated by monitoring binding to L-benzylhydantoin, a known ligand

GalP = target: T2, GalP (Escherichia coli, UniProt P0AEP1); assay: tryptophan fluorescence quenching titration; assay type: binding
T2 construct: His-tagged (Ni-NTA, HisProbe blot), expressed in E. coli inner membranes, solubilized in DDM or trapped in A8-35
T2 sequence (P0AEP1 1-464): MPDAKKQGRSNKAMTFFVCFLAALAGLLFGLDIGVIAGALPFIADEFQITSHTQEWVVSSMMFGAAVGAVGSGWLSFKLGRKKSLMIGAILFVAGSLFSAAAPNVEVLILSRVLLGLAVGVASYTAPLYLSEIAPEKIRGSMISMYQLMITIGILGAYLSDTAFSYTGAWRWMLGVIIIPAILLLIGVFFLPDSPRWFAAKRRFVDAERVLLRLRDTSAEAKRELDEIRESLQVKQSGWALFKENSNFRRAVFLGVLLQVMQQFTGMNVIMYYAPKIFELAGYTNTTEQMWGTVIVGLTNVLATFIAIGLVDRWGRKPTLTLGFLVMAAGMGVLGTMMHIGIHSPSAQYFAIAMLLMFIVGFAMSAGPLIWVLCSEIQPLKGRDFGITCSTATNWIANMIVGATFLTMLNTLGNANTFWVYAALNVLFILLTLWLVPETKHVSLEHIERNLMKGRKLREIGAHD
Protocol: tryptophan fluorescence quenching titration on GalP | GalP activity was assessed by monitoring binding to the small molecule inhibitor forskolin

Kd (Mhp1) | Kd (GalP) | SMILES
17.6 ± 1.8 µM |  | O=C1NC(=O)[C@H](Cc2ccccc2)N1 [L-benzylhydantoin]
 | 63 ± 19 µM | C=C[C@@]1(C)CC(=O)[C@]2(O)[C@@]3(C)[C@@H](O)CCC(C)(C)[C@@H]3[C@H](O)[C@H](OC(C)=O)[C@@]2(C)O1 [forskolin]
